# Results taken from US11571459B2, “Methods for treating cancer using PS-targeting antibodies with immuno-oncology agents” (ONCXERNA THERAPEUTICS, INC., priority 2017, dated 2023).
# Legend:
# [1] = system: previously-treated Stage IIIb/IV non-squamous NSCLC; details: in vivo
# Excerpt: (§1) This global, double-blind Phase III trial was initiated in 2012. Selection criteria were for patients with Stage IIIb/IV non-squamous NSCLC who progressed on platinum-doublet chemotherapy (should have progressed on appropriate targeted therapy if known EGFR or ALK mutation), with ECOG PS 0-1 and prior immunotherapy allowed (ECOG is the performance status scale defined by the Eastern Cooperative Oncology Group). […] The primary endpoint was overall survival (OS) and secondary endpoints included objective response rate (Independent Central Review, ICR), progression-free survival (ICR), safety, PK, Quality of Life (LCSS) and exploratory biomarkers, including immune correlates.
# (§2) OS was analyzed by VeriStrat subgroups using Kaplan-Meier statistical methods.
# (§3) A single cutoff method was first used to assess the patient β2GPI data.
# (§4) The initial analyses described above prompted further, extensive analyses of the data in 592 evaluable patients. These analyses used a two cutoff method (Klein & Moeschberger, 2003).
# (§5) Archival tissue obtained at the time of diagnosis was requested, but not required, in the Phase III trial of Example X. Formalin-fixed paraffin-embedded (FFPE) slides were stained with antibodies for a panel of lymphoid (or tumor) cell markers, as described in Feng et al., 2015: CD3+, CD8+, FoxP3+, PD-L1+, CD163+ and CK+ (cytokeratin, an epithelial carcinoma marker) using a mutliplex (6-plex) quantitative immunohistochemistry (IHC) assay (OPAL®, PerkinElmer, Waltham, Mass., USA) and using DAPI. The PD-L1 antibody used was the rabbit anti-PD-L1 antibody termed E1L3N® XP® (Cell Signaling Technology, (CST), Danvers, Mass., Catalogue #13684; Mahoney et al., 2015). Baseline PD-L1 expression was retrospectively scored on tumor cells (TC, i.e., CK+) and PD-L1 expressing tumor cells were classified according to their percentage within the total number of tumor cells using established assays and classifications (Fehrenbacher et al., 2016), as follows: TC3≥50%; TC2≥5% and ≤50%; TC1≥1% and <5%; and TC0<1%. Cox regression models for PD-L1 IHC subgroup populations were used for correlation with OS.
# (§6) Kaplan-Meier statistical methods and Cox proportional hazard models were utilized to evaluate and contrast the correlation of peripheral (and intratumoral) IFNγ levels with OS based on a data cut from the Phase III trial (Example X) dated Feb.
# [2] = system: previously-treated Stage IIIb/IV non-squamous NSCLC; assay: Phase III trial of bavituximab plus docetaxel in NSCLC
# Excerpt: as §1, §2, §3, §4, §5, §6
# [3] = system: previously treated non-squamous NSCLC
# Procedure: The primary objective of this study was to compare the ORR (CR+PR) among the treatment arms. Secondary objectives included comparing PFS, DR, OS, safety and PK.
# Additional blood draws were performed for these patients during Cycles 1 and 2 at specified time points.
# Samples from the NSCLC Phase II trial of Example IX (PPHM 0902) were tested using the functional β2GPI assay of Example XII.
# [4] = 70% of targeted OS events reached
# [5] = about 85% of targeted OS events
# [6] = about 85% of targeted OS events, vs docetaxel alone
# [7] = functional β2GPI ≥200 μg/mL, 578 evaluable patients
# [8] = functional β2GPI ≥200 μg/mL, 592 evaluable patients
substance,measurement,setting,value
bavituximab plus docetaxel: treatment arm: weekly 3 mg/kg bavituximab in combination with docetaxel,Grade 3 or higher adverse events,[1],68%
same,median OS,"[2]; 12 months follow-up, about 85% of targeted OS events",10.5 months
same,mOS,[2]; [4],10.7 months
same,median PFS,[2]; [4],4.1 months
same,mOS,"[2]; IFNγ high, no subsequent IO",9.0 months
same,HR,"[2]; IFNγ high, no subsequent IO, vs docetaxel alone",1.14
same,mOS,"[2]; IFNγ high, received subsequent IO",13.9 months
same,HR,"[2]; IFNγ high, received subsequent IO, vs docetaxel alone",1.0
same,mOS,"[2]; IFNγ low, no subsequent IO",10.5 months
same,HR,"[2]; IFNγ low, no subsequent IO, vs docetaxel alone",1.17
same,mOS,"[2]; IFNγ low, received subsequent IO",not reached
same,HR,"[2]; IFNγ low, received subsequent IO, vs docetaxel alone",0.24
same,mOS,[2]; VS Good patients (VeriStrat),11.2 months
same,mOS,[2]; VS Poor patients (VeriStrat),5.8 months
same,ORR,[2]; [5],15%
same,PFS,[2]; [5],4.2 months
same,HR for OS,[2]; [6],1.06
same,HR for PFS,[2]; [6],1.02
same,HR for death,[2]; functional β2GPI 200-240 μg/mL,0.67
same,improvement in mOS versus control group,[2]; functional β2GPI 200-240 μg/mL,5.5 month
same,mOS,[2]; functional β2GPI 200-240 μg/mL,13.2 months
same,HR for death,[2]; [7],0.77
same,mOS,[2]; [7],11.9 months
same,HR for death,[2]; [8],0.81
same,mOS,[2]; [8],11.9 months
same,mOS,"[2]; higher PD-L1 expression (TC1/2/3, ≥1%)",6.0 months
same,"HR, PD-L1 TC0 versus TC1/2/3 within arm",[2]; in vivo,0.38
same,mOS,"[2]; negative PD-L1 expression (TC0, <1%)",11.5 months
same,HR,"[2]; no subsequent IO, vs docetaxel alone",1.16
same,mOS,[2]; patients receiving subsequent IO,has yet to be reached
same,HR,"[2]; patients receiving subsequent IO, vs docetaxel alone",0.46
same,mOS,[2]; patients who did not receive subsequent IO,9.2 months
same,mOS,[2]; pre-treatment serum IFNγ high (≥ median 0.093 μg/mL),9.2 months
same,mOS,[2]; pre-treatment serum IFNγ low (< median 0.093 μg/mL),11.9 months
same,HR for OS versus combined arm,[3]; 3 mg/kg,0.66
same,"Overall Survival, Median","[3]; ITT, all with docetaxel, Bavituximab arm 3 mg/kg",11.7 Months
same,Grade 5 (fatal) events,"[3]; bavituximab 3 mg/kg, combined control = placebo or 1 mg/kg bavituximab, all with docetaxel",5.0%
